Measurements reported in the supplement of paper PMC10949913.
Structures can show the parent of a compound that is named as a salt. ± gives the standard deviation of the averaged measurements.

Experiments:
[1] = test system: NCI-H295R; test: ExcessHSA synergy score with TAK-243; higher = less synergy (negative = synergistic); settings: combined with: TAK-243 (MLN-7243) matrix, 9-point 1:2 dilution
Description: (§1)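 Each drug was tested at 9 points with 1:2 dilution; viability was read by CellTiter-Glo as in the single-agent screen. Synergy is scored as ExcessHSA (sum of excess over highest single agent; negative = synergy) and the Beta interaction parameter (<1 synergy).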

[2] = test system: CU-ACC1; test: as above; settings: combined with: TAK-243 (MLN-7243) matrix, 9-point 1:2 dilution
Description: as §1

[3] = test system: NCI-H295R; test: area under concentration-response curve (viability) (AUC (a.u.)); higher = less active; settings: 48 h
Summary of the method: (§2)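 Library compounds were tested at 11 concentrations against three adrenocortical carcinoma cell lines in 1,536-well plates. CellTiter-Glo luminescence was read after 48 h and normalised per plate to vehicle and empty-well controls. Only inhibitory or non-responding curve classes from fitted concentration-response curves contributed AC50 and area under the curve.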

[4] = test system: CU-ACC2; test: as above; settings: 48 h
Summary of the method: as §2

[5] = test system: CU-ACC1; test: as above; settings: 48 h
Summary of the method: as §2

[6] = test system: NCI-H295R; test: AC50 viability; higher = less potent; settings: 48 h
Summary of the method: as §2

[7] = test system: CU-ACC2; test: AC50 viability; higher = less potent; settings: 48 h
Summary of the method: as §2

[8] = test system: CU-ACC1; test: AC50 viability; higher = less potent; settings: 48 h
Summary of the method: as §2

Compound | ExcessHSA synergy score with TAK-243 [1] | ExcessHSA synergy score with TAK-243 [2] | area under concentration-response curve [3] | area under concentration-response curve [4] | area under concentration-response curve [5] | AC50 viability [6] | AC50 viability [7] | AC50 viability [8]
CCCCCCCCc1ccc(CCC(N)(CO)CO)cc1 [Fingolimod hydrochloride] | 127 | -48.2 |  |  |  |  |  | 
CO/C1=C\C(C)=C\[C@@H](C)[C@@H](O)[C@@H](C)C/C(C)=C/C=C/[C@H](OC)[C@@H]([C@@H](C)[C@@H](O)[C@H](C)[C@@]2(O)C[C@@H](O)[C@H](C)[C@@H](C(C)C)O2)OC1=O [Bafilomycin A1] | -139 | 14.5 |  |  |  |  |  | 
COC1CCC(n2c([C@@H]3CCCC(=O)N3c3ccc(F)c(F)c3)nc3cc(-c4c(C)noc4C)ccc32)CC1 (stereo partly drawn) [CBP/p300-IN-4] | -244 | -96.9 |  |  |  |  |  | 
Nc1ncn([C@@H]2O[C@H](CO)[C@@H](O)[C@H]2O)c(=O)n1 [5-Azacytidine] | 360 |  |  |  |  |  |  | 
CO[C@H]1C[C@@H]2CC[C@@H](C)[C@@](O)(O2)C(=O)C(=O)N2CCCC[C@H]2C(=O)O[C@H]([C@H](C)C[C@@H]2CC[C@@H](OCCO)[C@H](OC)C2)CC(=O)[C@H](C)/C=C(\C)[C@@H](O)[C@@H](OC)C(=O)[C@H](C)C[C@H](C)/C=C/C=C/C=C/1C [Everolimus] | -1040 | -885 |  |  |  |  |  | 
Cc1nc(=O)c2cc(CN(C)c3ccc(C(=O)N[C@@H](CCC(=O)O)C(=O)O)s3)ccc2[nH]1 [Raltitrexed] | -54.1 | -398 |  |  |  |  |  | 
CO[C@H]1CN(C)C(=O)c2cc(NC(=O)NC(C)C)ccc2OC[C@H](C)N(Cc2ccc(-c3ccccn3)cc2)C[C@@H]1C [BD98] | -760 | -213 |  |  |  |  |  | 
CC1(C)CCC(CN2CCN(c3ccc(C(=O)NS(=O)(=O)c4ccc(NCC5CCOCC5)c([N+](=O)[O-])c4)c(Oc4cnc5[nH]ccc5c4)c3)CC2)=C(c2ccc(Cl)cc2)C1 [Venetoclax (ABT-199)] | -424 | -249 |  |  |  |  |  | 
C=CC(=O)N1CC/C(=C\c2ccc(F)c([N+](=O)[O-])c2)C(=O)/C(=C/c2ccc(F)c([N+](=O)[O-])c2)C1 [VLX-1570] | -147 | 79.8 |  |  |  |  |  | 
Cc1cccc(CC(=O)N2CCc3c2ccc(-c2cn(C)c4ncnc(N)c24)c3F)n1 | 173 | -151 |  |  |  |  |  | 
COc1ncnc(C2CC2)c1-c1ncc2cnn(Cc3ccc(-c4nc(C(F)(F)F)cn4C(C)C)cc3)c2n1 [KSQ-4279] | -796 | -545 |  |  |  |  |  | 
NCCCC[C@H](NC(=O)[C@@H](NC(=O)[C@H](Cc1c[nH]c2ccccc12)NC(=O)[C@H](CCCCN)NC(=O)[C@H](CCCCN)NC(=O)[C@H](Cc1c[nH]c2ccccc12)NC(=O)[C@H](Cc1c[nH]c2ccccc12)NC(=O)[C@H](CCCCN)NC(=O)[C@@H](N)CCCCN)C(c1ccccc1)c1ccccc1)C(N)=O [Oncopore] | 391 | 401 |  |  |  |  |  | 
CNCc1ccc(-c2cc(-c3nc(-c4ccc(S(=O)(=O)C(C)C)cc4)cnc3N)on2)cc1 [Berzosertib] | 144 | -219 |  |  |  |  |  | 
CNC(=O)c1cccc(-c2ccc3c(N4CCOC[C@@H]4C)nc(N4CCOC[C@@H]4C)nc3n2)c1 [Vistusertib] | -549 ± 350 | -211 ± 410 |  |  |  |  |  | 
NC(=O)c1c(NC(=O)COCc2cc(-c3cccs3)on2)sc2c1CCCC2 | 122 | 37.9 |  |  |  |  |  | 
Nc1nc(NC2CC2)cc(-c2cccc(Cl)c2Cl)n1 [TH588] | -172 | -251 |  |  |  |  |  | 
CCc1cnn2c(NCc3ccc[n+]([O-])c3)cc(N3CCCC[C@H]3CCO)nc12 [Dinaciclib] | 170 | 86.7 |  |  |  |  |  | 
CO[C@@]12[C@H](COC(N)=O)C3=C(C(=O)C(C)=C(N)C3=O)N1C[C@@H]1N[C@@H]12 [Mitomycin C] | 200 | 133 |  |  |  |  |  | 
CNC(=O)c1ccc(Nc2ncc(C(F)(F)F)c(NCc3nccnc3N(C)S(C)(=O)=O)n2)cc1 [Defactinib] | 245 | 223 |  |  |  |  |  | 
Cc1[nH]c2ccc(F)cc2c1-c1nc2c3cccnc3c3ncccc3c2[nH]1 [APTO-253] | 586 | 410 |  |  |  |  |  | 
O=C(Nc1ccnc(C(F)(F)F)c1)c1cnn(-c2cccc3c(=O)[nH]ccc23)c1C(F)(F)F | -544 | -300 |  |  |  |  |  | 
COc1cc([C@@H](CC(=O)O)c2ccc(C)c(CN3C[C@@H](C)Oc4ccccc4S3(=O)=O)c2)cc2nnn(C)c12 [KI-696] | 351 | 533 |  |  |  |  |  | 
Nc1nc2[nH]cc(CCc3ccc(C(=O)N[C@@H](CCC(=O)O)C(=O)O)cc3)c2c(=O)[nH]1 |  | 147 |  |  |  |  |  | 
Nc1nc2[nH]cc(CCc3ccc(C(=O)N[C@@H](CCC(=O)O)C(=O)O)cc3)c2c(=O)[nH]1 [Pemetrexed] | 397 |  |  |  |  |  |  | 

Compound | ExcessHSA synergy score with TAK-243 [1] | ExcessHSA synergy score with TAK-243 [2] | area under concentration-response curve [3] | area under concentration-response curve [4] | area under concentration-response curve [5] | AC50 viability [6] | AC50 viability [7] | AC50 viability [8]
CCN(c1cc(-c2ccc(CN3CCOCC3)cc2)cc(C(=O)NCc2c(C)cc(C)[nH]c2=O)c1C)C1CCOCC1 |  | -215 |  |  |  |  |  | 
CCN(c1cc(-c2ccc(CN3CCOCC3)cc2)cc(C(=O)NCc2c(C)cc(C)[nH]c2=O)c1C)C1CCOCC1 [Tazemetostat] | -203 |  |  |  |  |  |  | 
CC[C@@H]1C(=O)N(C)c2cnc(Nc3ccc(C(=O)NC4CCC(N5CCN(CC6CC6)CC5)CC4)cc3OC)nc2N1C(C)C (stereo partly drawn) |  |  | 429 | 450 | 472 | 7.42 µM | 9.34 µM | 7.42 µM
COc1ccc(-c2cc(C(O)C3CCCCN3)c3ccccc3n2)cc1 (stereo not drawn) |  |  | 455 | 377 | 432 | 7.42 µM | 14.8 µM | 10.5 µM
CC1(C)CC\C2=C(/O1)C3=C(C=CC=C3)C(=O)C2=O |  |  | 535 | 515 | 333 | 33.2 µM | 16.6 µM | 6.61 µM
Cc1ccc(C(=O)Nc2cccc(C(F)(F)F)c2)cc1-c1ccc2nc(NCCN3CCOCC3)ncc2c1 |  |  | 546 | 576 | 481 | 18.6 µM | 18.6 µM | 10.5 µM
CO[C@H]1CCC(O[C@H]2C[C@H]([C@]3(C)CC[C@]4(C[C@H](O)[C@@H](C)[C@@H]([C@@H](C)/C=C(\C)C(=O)[C@H](C)C[C@H](C)C(=O)[O-])O4)O3)O[C@]3(O[C@@H]([C@H]4O[C@@](O)(CO)[C@H](C)C[C@@H]4C)C[C@@H]3C)[C@@H]2C)O[C@@H]1C (stereo partly drawn) |  |  | 440 | 392 | 400 | 2.63 µM | 2.35 µM | 1.48 µM
O=C(NO)c1cnc(NC2(c3ccccc3)CC2)nc1 |  |  | 465 | 499 | 423 | 5.25 µM | 16.6 µM | 11.8 µM
Cc1ccc([S+](=O)([O-])Nc2cc(C(F)(F)F)ccc2C(=O)Nc2nc(-c3ccccc3)cs2)cc1 |  |  | 479 | 499 | 436 | 8.33 µM | 8.33 µM | 10.5 µM
COc1cc(O)c2c(c1)C1OC1C[C@H](O)[C@H](O)C(=O)/C=C\C[C@H](C)OC2=O (stereo partly drawn) |  |  | 435 | 492 | 429 | 14.8 µM | 16.6 µM | 6.61 µM
ClC1=CC\2=C(NC(=O)\C(=C2N[C@@H]3CN4CCC3CC4)C5=NC6=C([NH]5)C=CC=C6)C=C1 |  |  | 404 | 365 | 404 | 0.118 µM | 5.25 µM | 16.6 µM
Cc1cnc(Nc2ccc(CN3CCOCC3)cc2)nc1Nc1cccc([S+](=O)([O-])NC(C)(C)C)c1 |  |  | 492 | 509 | 445 | 9.34 µM | 11.8 µM | 20.9 µM
CC(C)C[C@H](NC(=O)CNC(=O)c1cc(Cl)ccc1Cl)B(O)O |  |  | 408 | 373 | 329 | 0.105 µM | 0.209 µM | 0.166 µM
CC[C@@]1(O)C[C@H](O[C@H]2C[C@H](N(C)C)[C@H](O[C@H]3C[C@H](O)[C@H](O[C@H]4CCC(=O)[C@H](C)O4)[C@H](C)O3)[C@H](C)O2)c2c(cc3c(c2O)C(=O)c2c(O)cccc2C3=O)[C@H]1C(=O)OC |  |  | 523 | 533 | 453 | 16.6 µM | 16.6 µM | 23.5 µM
Nc1ncn([C@@H]2O[C@H](CO)[C@@H](O)[C@H]2O)c(=O)n1 [5-Azacitidine] |  | 346 |  |  |  |  |  | 
Cc1cc(O[C@@H](CCC(F)(F)F)c2ccc(C(=O)NCCC(=O)O)cc2)cc(C)c1-c1ccc(C(C)(C)C)cc1 |  |  | 384 | 409 | 382 | 11.8 µM | 23.5 µM | 18.6 µM
C[C@@]12OC(=O)[C@@]1(NC(=O)[C@@H]2CCCl)[C@@H](O)[C@H]\3CCC\C=C3 |  |  | 435 | 437 | 305 | 0.833 µM | 1.05 µM | 0.833 µM
COc1cc2c(Oc3ccc(NC(=O)C4(C(=O)Nc5ccc(F)cc5)CC4)cc3F)ccnc2cc1OCCCN1CCOCC1 |  |  | 436 | 549 | 469 | 6.61 µM | 9.34 µM | 10.5 µM
N[S+]([O-])(=O)C1=CC=C(NC/2=C/C(=O)C3=CC=CC=C3C2=O)C=C1 |  |  | 403 | 463 | 290 | 2.35 µM | 13.2 µM | 0.59 µM
Nc1ncnc2c1c(-c1cnc3[nH]ccc3c1)nn2C1CCCC1 |  |  | 414 | 338 | 395 | 5.9 µM | 13.2 µM | 5.9 µM
CNCCCOc1cc(F)c(-c2c(Cl)nc3ncnn3c2N[C@@H](C)C(F)(F)F)c(F)c1 |  |  | 397 | 403 | 456 | 0.148 µM | 10.5 µM | 5.25 µM
CCCCCCCCc1ccc(CCC(N)(CO)CO)cc1 |  |  | 395 | 384 | 357 | 11.8 µM | 8.33 µM | 10.5 µM
COc1cc2c(NC3CCN(C(C)C)CC3)nc(C3CCCCC3)nc2cc1OCCCN1CCCC1 |  |  | 404 | 350 | 369 | 9.34 µM | 14.8 µM | 11.8 µM
